Results: US20250074911A1, “MACROCYCLIC BTK INHIBITORS” (Crossfire Oncology Holding B.V., priority 2021, published 2025)

What was measured:
REC-1 T474I cell lines = test: Cell proliferation assay REC-1 BTK T474I knock-in cells (ATPlite, 72 hours); assay type: cell-based; conditions: Homo sapiens, Rec1; 72 hours; read-out: IC50 REC-1 T474I
Description: Cell proliferation assay Generation of BTK […] knock-in cell lines wt-REC-1 cell lines expressing mutant BTK were created at Synthego Corporation. Cell lines expressing BTK […] was generated via CRISPR/Cas9. Monoclonal REC-1 […] cell lines were obtained by single cell cloning. The mutation status of all cell lines was confirmed via sequencing. […] Luminescence was recorded on an Envision multimode reader. The cell signal at the start of incubation was recorded separately in order to distinguish between cell population growth and cell death. In addition, maximum growth was determined by incubation of a duplicate without compound in the presence of 0.3% DMSO. Percentage growth was used as the main y-axis signal.

[1] = target: full-length wt-BTK enzyme (Homo sapiens (Human), UniProt Q06187); test: Biochemical kinase assay wt-BTK (IMAP)
Description: Biochemical kinase assay wt-BTK To determine the inhibitory activity of compounds on wt-BTK enzyme activity, the IMAP® assay (Molecular Devices) was used. […] After pre-incubation of 1 hour in the dark at room temperature, fluorescein-labeled MBP-derived substrate peptide (Molecular Devices, cat. no. RP 7123) was added, followed by ATP to start the reaction. Final enzyme concentration was 1.2 nM, final substrate concentration 50 nM, and final ATP concentration was 4 μM. The reaction was allowed to proceed for 2 hours at room temperature in the dark. The reaction was stopped by quenching with IMAP progressive binding solution according to the protocol of the manufacturer (Molecular Devices). Fluorescein polarization was measured on an Envision multimode reader (Perkin Elmer, Waltham, MA, U.S.A.). […] Results of the wt-BTK binding affinity are shown in Table 1 below. • IC50 wt-BTK: […]

[2] = system: wt-TMD8 diffuse large B-cell lymphoma cells; test: Cell proliferation assay wt-TMD8 (ATPlite, 120 hours); assay type: cell-based; conditions: B-cell; wt-TMD8 cells, 120 hours, ATPlite; read-out: IC50 wt-TMD8
Description: Cell proliferation assay wt-TMD8 diffuse large B-cell lymphoma cells were purchased from Tokyo Medical and Dental University and cultured in RPMI-1640 cell culture medium (cat. no. 61870036, Life Technologies), supplemented with 10% (v/v) heat-inactivated fetal bovine calf serum and 1% penicillin/[…]. 1600 cells per well (in 45 μl) were seeded in a white 384-well culture plate (cat. no. 781080, Greiner Bio-One) and allowed to rest for at least 5 hours at 37° C., 95% humidity, and 5% CO2. 5 μl compound solution was added to the cells and incubation was continued for 120 hours (5 days), followed by addition of 24 μl ATPlite 1Step™ (PerkinElmer, Groningen, The Netherlands) solution was added to each well. Luminescence was recorded on an Envision multimode reader. The cell signal at the start of incubation was recorded separately in order to distinguish between cell population growth and cell death. In addition, maximum growth was determined by incubation of a duplicate without compound in the presence of 0.3% DMSO. Percentage growth was used as the main y-axis signal.

[3] = target: full-length BTK C481S enzyme (Homo sapiens (Human), UniProt Q06187, C481S); test: Biochemical kinase assay BTK C481S (IMAP)
Description: Biochemical kinase assay BTK […] To determine the inhibitory activity of compounds on BTK C481S enzyme activity, the IMAP® assay (Molecular Devices) was used. […] After pre-incubation of 1 hour in the dark at room temperature, fluorescein-labeled MBP-derived substrate peptide (Molecular Devices, cat. no. RP 7123) was added, followed by ATP to start the reaction. Final enzyme concentration was 1.2 nM final substrate concentration 50 nM, and final ATP concentration was 7 μM. The reaction was allowed to proceed for 2 hours at room temperature in the dark. The reaction was stopped by quenching with IMAP progressive binding solution according to the protocol of the manufacturer (Molecular Devices). Fluorescein polarization was measured on an Envision multimode reader (Perkin Elmer, Waltham, MA, U.S.A.). IC50 were calculated using XLfitTM5 software (ID Business Solutions, Ltd., Surrey, U.K.). Results of the BTK […] binding affinity are shown in Table 1 below. • IC50 BTK […]: […]

[4] = system: wt-REC-1 mantle cell lymphoma cells; test: Cell proliferation assay wt-REC-1 (ATPlite, 72 hours); assay type: cell-based; conditions: 72 h; read-out: IC50 wt-REC-1
Description: Results of the BTK […] binding affinity are shown in Table 1 below. • IC50 BTK […]: […] wt-REC-1 mantle cell lymphoma cells were purchased from American Type Culture Collection via Synthego Corporation (cat. no. CRL-3004, ATCC). […] Luminescence was recorded on an Envision multimode reader. The cell signal at the start of incubation was recorded separately in order to distinguish between cell population growth and cell death. In addition, maximum growth was determined by incubation of a duplicate without compound in the presence of 0.3% DMSO. Percentage growth was used as the main y-axis signal. IC50s were fitted by non-linear regression using IDBS XLfitTM5 using a 4-parameter logistic curve, yielding a maximum signal, minimum signal, hill-parameter and IC50. Results of the wt-REC-1 proliferation are shown in Table 1 below. • IC50 wt-REC-1: […]

full-length wt-BTK enzyme, sequence (Q06187 whole entry): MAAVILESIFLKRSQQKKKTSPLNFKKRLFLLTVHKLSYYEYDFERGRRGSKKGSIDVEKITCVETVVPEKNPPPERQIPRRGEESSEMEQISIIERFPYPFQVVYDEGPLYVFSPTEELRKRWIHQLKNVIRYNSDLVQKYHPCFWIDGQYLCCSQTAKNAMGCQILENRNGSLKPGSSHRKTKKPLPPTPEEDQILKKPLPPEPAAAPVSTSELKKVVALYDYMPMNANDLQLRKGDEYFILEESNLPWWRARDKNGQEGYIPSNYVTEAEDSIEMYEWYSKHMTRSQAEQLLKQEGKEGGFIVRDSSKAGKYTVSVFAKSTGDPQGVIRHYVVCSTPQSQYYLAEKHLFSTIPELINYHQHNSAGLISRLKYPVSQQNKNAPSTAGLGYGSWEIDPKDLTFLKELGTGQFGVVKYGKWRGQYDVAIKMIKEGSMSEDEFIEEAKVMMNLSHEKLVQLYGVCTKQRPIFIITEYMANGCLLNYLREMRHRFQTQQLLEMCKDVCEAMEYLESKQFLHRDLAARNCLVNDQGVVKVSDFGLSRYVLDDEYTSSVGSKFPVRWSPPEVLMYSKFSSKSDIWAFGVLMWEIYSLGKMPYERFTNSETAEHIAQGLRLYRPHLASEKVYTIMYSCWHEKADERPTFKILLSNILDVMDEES
full-length BTK C481S enzyme, sequence (Q06187 whole entry C481S): as the sequence (Q06187 whole entry) above, with C481S counted along it

| IC50 [1] | IC50 [2] | IC50 [3] | IC50 [4] | Structure (SMILES) | IC50 (REC-1 T474I cell lines) |
| --- | --- | --- | --- | --- | --- |
| 50 to 500 nM |  | 50 to 500 nM | 100 to 1000 nM | Nc1ncc2c3c1c(-c1ccc(C(=O)Nc4cc(C(F)(F)F)ccn4)cc1)nn3[C@@H]1CCC[C@H](C1)NC(=O)CCCC/C=C/C2 [Example 98a] | 500 to 10000 nM |
| 50 to 500 nM |  | 50 to 500 nM | 1000 to 10000 nM | C[C@@H]1CCn2nc(-c3ccc(C(=O)Nc4cc(C(F)(F)F)ccn4)cc3)c3c(N)ncc(c32)C/C=C/CCCC(=O)N1 [Example 109b] | 500 to 10000 nM |
| 5 to 50 nM |  | 5 to 50 nM | 100 to 1000 nM | Nc1ncc2n3c(nc(-c4ccc(C(=O)Nc5cc(C(F)(F)F)ccn5)cc4)c13)[C@@H]1CCC[C@H](C1)NC(=O)CCC/C=C/C2 [Example 133a] | 500 to 10000 nM |
| 5 to 50 nM |  | 5 to 50 nM | 100 to 1000 nM | C[C@@H]1CCn2nc(-c3ccc(C(=O)Nc4cc(C(F)(F)F)ccn4)cc3)c3c(N)ncc(c32)C/C=C\CCCC(=O)N1 [Example 109a] | 500 to 10000 nM |
| 50 to 500 nM |  | 50 to 500 nM | 1000 to 10000 nM | Nc1ncc2c3c1c(-c1ccc(C(=O)Nc4ccccn4)cc1)nn3[C@@H]1CCC[C@H](C1)NC(=O)CC/C=C/C2 [Example 96a] | 500 to 10000 nM |
| < 5 nM |  | < 5 nM | 100 to 1000 nM | Nc1ncc2c3c1c(-c1ccc(C(=O)Nc4cc(C(F)(F)F)ccn4)cc1)nn3[C@@H]1CCC[C@H](C1)NC(=O)CCCCCC/C=C/C2 [Example 103a] | 100 to 500 nM |
| 5 to 50 nM |  | 5 to 50 nM | 100 to 1000 nM | Nc1ncc2c3c1c(-c1ccc(C(=O)Nc4cc(C(F)(F)F)ccn4)cc1)nn3[C@@H]1CCC[C@H](C1)C(=O)NCCC/C=C/C2 [Example 84a] | 500 to 10000 nM |
| 5 to 50 nM |  | 5 to 50 nM | 1000 to 10000 nM | Nc1ncc2c3c1c(-c1ccc(C(=O)Nc4ccccn4)cc1)nn3[C@@H]1CCC[C@H](C1)NC(=O)CC/C=C\C2 [Example 96b] | 500 to 10000 nM |

The remaining lines, values behind:

| Structure (SMILES) | IC50 [1] | IC50 [2] | IC50 [3] | IC50 [4] | IC50 (REC-1 T474I cell lines) |
| --- | --- | --- | --- | --- | --- |
| C[C@@H]1CCn2nc(-c3ccc(C(=O)Nc4cc(C(F)(F)F)ccn4)cc3)c3c(N)ncc(c32)/C=C/CCOCCC(=O)N1 [Example 69] | < 5 nM | < 100 nM | < 5 nM | 100 to 1000 nM | 100 to 500 nM |
| C[C@@H]1CCn2nc(-c3ccc(C(=O)Nc4cc(C(F)(F)F)ccn4)cc3)c3c(N)ncc(c32)/C=C/CCN2CC[C@@H]2C(=O)N1 [Example 74] | < 5 nM | < 100 nM | < 5 nM | 100 to 1000 nM | 500 to 10000 nM |
| Nc1ncc2c3c1c(-c1ccc(C(=O)Nc4cc(C(F)(F)F)ccn4)cc1)nn3[C@@H]1CCC[C@H](C1)NC(=O)CNCC/C=C/2 [Example 32] | < 5 nM | < 100 nM | < 5 nM | < 100 nM | 100 to 500 nM |
| C[C@@H]1CCn2nc(-c3ccc(C(=O)Nc4cc(C(F)(F)F)ccn4)cc3)c3c(N)ncc(c32)CC=CCCCCC(=O)N1 [Example 110] | 5 to 50 nM |  | 5 to 50 nM | 100 to 1000 nM | 500 to 10000 nM |
| C[C@@H]1CCn2nc(-c3ccc(C(=O)Nc4cc(C(F)(F)F)ccn4)cc3)c3c(N)ncc(c32)/C=C/CN(C)CCCC(=O)N1 [Example 66] | < 5 nM |  | < 5 nM | 1000 to 10000 nM | 500 to 10000 nM |
| Nc1ncc2c3c1c(-c1ccc(C(=O)Nc4cc(C(F)(F)F)ccn4)cc1)nn3[C@@H]1CCC[C@H](C1)NC(=O)CCNC/C=C/C2 [Example 106] | 5 to 50 nM |  | 5 to 50 nM | 1000 to 10000 nM | 500 to 10000 nM |
| Nc1ncc2c3c1c(-c1ccc(C(=O)Nc4ccccn4)cc1)nn3[C@@H]1CCC[C@H](C1)C(=O)NCCCCCC/C=C\C2 [Example 93] | 5 to 50 nM |  | < 5 nM | 100 to 1000 nM | 500 to 10000 nM |
| C[C@@H]1CCn2nc(-c3ccc(C(=O)Nc4cc(C(F)(F)F)ccn4)cc3)c3c(N)ncc(c32)CCCCCCC(=O)N1 [Example 121] | 5 to 50 nM |  | < 5 nM | 100 to 1000 nM | 500 to 10000 nM |
| Nc1ncc2c3c1c(-c1ccc(C(=O)Nc4cc(C(F)(F)F)ccn4)cc1)nn3[C@@H]1CCC[C@H](C1)NC(=O)CCCNC/C=C\C2 [Example 108] | < 5 nM |  | < 5 nM | 100 to 1000 nM | 500 to 10000 nM |
| Nc1ncc2c3c1c(-c1ccc(C(=O)Nc4cc(C(F)(F)F)ccn4)cc1)nn3[C@@H]1CCC[C@H](C1)NC(=O)CCCNC/C=C/2 [Example 15] | < 5 nM | < 100 nM | < 5 nM | 100 to 1000 nM |  |
| C[C@@H]1CCn2nc(-c3ccc(C(=O)Nc4cc(C(F)(F)F)ccn4)cc3)c3c(N)ncc(c32)/C=C/CO[C@@H](C)C(=O)N1 [Example 58] | 5 to 50 nM |  | 5 to 50 nM | 1000 to 10000 nM | 500 to 10000 nM |
| Nc1ncc2c3c1c(-c1ccc(C(=O)Nc4cc(C(F)(F)F)ccn4)cc1)nn3[C@@H]1CCC[C@H](C1)C(=O)NCCCCCC/C=C\C2 [Example 92] | 5 to 50 nM |  | 5 to 50 nM | 100 to 1000 nM | 500 to 10000 nM |
| Nc1ncc2c3c1c(-c1ccc(C(=O)Nc4cc(C(F)(F)F)ccn4)cc1)nn3[C@@H]1CCC[C@H](C1)NC(=O)CCCCNC/C=C/2 [Example 22] | < 5 nM |  | < 5 nM | 100 to 1000 nM | 500 to 10000 nM |
| Nc1ncc2c3c1c(-c1ccc(C(=O)Nc4ccccn4)cc1)nn3[C@@H]1CCC[C@H](C1)C(=O)NCCC/C=C\C2 [Example 90] | 5 to 50 nM |  | 5 to 50 nM | 100 to 1000 nM | 500 to 10000 nM |
| Nc1ncc2c3c1c(-c1ccc(C(=O)Nc4ccccn4)cc1)nn3[C@@H]1CCC[C@H](C1)C(=O)NCC/C=C\C2 [Example 91] | 50 to 500 nM |  | 50 to 500 nM | 1000 to 10000 nM | 500 to 10000 nM |
| Nc1ncc2c3c1c(-c1ccc(C(=O)Nc4cc(C(F)(F)F)ccn4)cc1)nn3[C@@H]1CCC[C@H](C1)NC(=O)CNCCCC2 [Example 127] | < 5 nM |  | < 5 nM | 100 to 1000 nM | 500 to 10000 nM |
| C[C@@H]1CCn2nc(-c3ccc(C(=O)Nc4cc(C(F)(F)F)ccn4)cc3)c3c(N)ncc(c32)/C=C/CCCCCCC(=O)N1 [Example 62] | < 5 nM |  | < 5 nM | 100 to 1000 nM | 500 to 10000 nM |
| Nc1ncc2c3c1c(-c1ccc(C(=O)Nc4cc(C(F)(F)F)ccn4)cc1)nn3[C@@H]1CCC[C@H](C1)C(=O)NCCCCCCCCC2 [Example 120] | 5 to 50 nM |  | 5 to 50 nM | 100 to 1000 nM | 500 to 10000 nM |
| Nc1ncc2c3c1c(-c1ccc(C(=O)Nc4cc(C(F)(F)F)ccn4)cc1)nn3[C@@H]1CCC[C@H](C1)NC(=O)CCNCCCC2 [Example 112] | < 5 nM |  | < 5 nM | 100 to 1000 nM | 100 to 500 nM |
